Measurements reported in the supplement of paper PMC6045584.
± gives the standard deviation of the averaged measurements.

Legend:
[1] = compound: Oc1ccc(/C=C/c2cc(O)cc(O)c2)cc1 [RESVERATROL]; assay: surviving fraction relative to DMSO-only wells; higher = less growth inhibition; settings: exposure time: 5 days
Method in brief: (§1)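 Viability was scored with CellTiter-Glo luminescence and normalised to the median of DMSO-only wells as surviving fraction. Beforehand, log-phase tumour cell lines were seeded at 250–500 cells per well in 384-well plates, allowed 24 hours, and exposed continuously for five days to inhibitors at 0.5, 1, 5, 10, 50, 100, 500 and 1000 nM. Only lines whose three screens gave replicate Pearson r >0.7 and median Z' >0.3 were kept.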

[2] = compound: COc1cc2c(cc1O)CC[C@@H]1[C@@H]2CC[C@]2(C)[C@@H](O)CC[C@@H]12 [2-METHOXYESTRADIOL]; assay: as above; settings: exposure time: 5 days
Method in brief: as §1

Test System	surviving fraction ([1]; 0.5 nM)	surviving fraction ([1]; 1 nM)	surviving fraction ([1]; 5 nM)	surviving fraction ([1]; 10 nM)	surviving fraction ([1]; 50 nM)	surviving fraction ([1]; 100 nM)	surviving fraction ([1]; 500 nM)	surviving fraction ([1]; 1000 nM)	surviving fraction ([2]; 0.5 nM)	surviving fraction ([2]; 1 nM)	surviving fraction ([2]; 5 nM)	surviving fraction ([2]; 10 nM)	surviving fraction ([2]; 50 nM)	surviving fraction ([2]; 100 nM)	surviving fraction ([2]; 500 nM)	surviving fraction ([2]; 1000 nM)
22RV1 PROSTATE	1.01 ± 0.05	1.04 ± 0.076	1.05 ± 0.067	1.04 ± 0.024	0.981 ± 0.015	1.09 ± 0.032	0.961 ± 0.12	1.05 ± 0.079	1.01 ± 0.057	1.09 ± 0.17	1.04 ± 0.07	1.07 ± 0.15	1.03 ± 0.073	0.903 ± 0.16	0.791 ± 0.18	0.646 ± 0.068
93VU HEADNECK	1.07 ± 0.11	1.07 ± 0.095	1.11 ± 0.065	1.14 ± 0.078	1.149 ± 0.0099	1.22 ± 0.16	1.1 ± 0.068	1.11 ± 0.15	0.864 ± 0.13	0.829 ± 0.072	1.07 ± 0.096	1.14 ± 0.062	1.09 ± 0.058	0.921 ± 0.017	0.741 ± 0.049	0.788 ± 0.034
143B BONE	0.925 ± 0.14	1.07 ± 0.016	1.01 ± 0.021	1.065 ± 0.0021	0.885 ± 0.19	0.947 ± 0.17	1.01 ± 0.037	1.11 ± 0.057	1.04 ± 0.049	1.06 ± 0.054	1.1 ± 0.071	1.09 ± 0.073	1.08 ± 0.071	1.09 ± 0.046	0.536 ± 0.069	0.159 ± 0.016
A549 LUNG	1.03 ± 0.011	1.07 ± 0.043	1.05 ± 0.024	1.05 ± 0.026	1.04 ± 0.021	1.09 ± 0.06	1.07 ± 0.044	1.11 ± 0.062	0.991 ± 0.016	0.9623 ± 0.0067	0.983 ± 0.018	0.945 ± 0.021	1.02 ± 0.043	1.05 ± 0.015	0.992 ± 0.025	0.544 ± 0.028
ASKA SYNOVIAL	1.12 ± 0.019	1.15 ± 0.089	1.22 ± 0.077	1.25 ± 0.058	1.12 ± 0.13	1.22 ± 0.051	1.1 ± 0.072	1.13 ± 0.1	1.07 ± 0.086	1.08 ± 0.068	1.05 ± 0.054	1.07 ± 0.054	1.1 ± 0.049	1.03 ± 0.066	0.503 ± 0.039	0.353 ± 0.015
BT20 BREAST	1.05 ± 0.052	1.13 ± 0.1	1.13 ± 0.038	1.15 ± 0.059	1.06 ± 0.037	1.12 ± 0.078	1.12 ± 0.19	1.25 ± 0.12	1.08 ± 0.068	1.09 ± 0.062	1.07 ± 0.082	1.05 ± 0.076	1.24 ± 0.14	1.11 ± 0.067	1.13 ± 0.044	0.662 ± 0.048
BT549 BREAST	0.97 ± 0.081	1.1 ± 0.17	0.942 ± 0.14	1.09 ± 0.06	1.16 ± 0.038	1.01 ± 0.14	1.15 ± 0.047	1.12 ± 0.028	0.974 ± 0.087	1.05 ± 0.1	1.05 ± 0.12	1.02 ± 0.024	0.968 ± 0.17	1.08 ± 0.14	0.53 ± 0.092	0.106 ± 0.044
C33A CERVIX	0.928 ± 0.045	0.933 ± 0.052	0.956 ± 0.14	0.998 ± 0.032	0.978 ± 0.028	0.974 ± 0.096	0.946 ± 0.023	0.958 ± 0.049	0.689 ± 0.038	0.772 ± 0.04	0.918 ± 0.1	1.03 ± 0.055	0.965 ± 0.031	0.964 ± 0.055	0.482 ± 0.087	0.595 ± 0.028
CADOES1 SOFT TISSUE	0.972 ± 0.09	0.939 ± 0.14	0.952 ± 0.047	0.931 ± 0.074	0.993 ± 0.023	1.02 ± 0.061	0.991 ± 0.017	1.02 ± 0.068	0.795 ± 0.055	0.875 ± 0.099	0.846 ± 0.11	0.894 ± 0.18	0.886 ± 0.047	0.867 ± 0.15	0.964 ± 0.062	0.358 ± 0.098
CAL51 BREAST	0.901 ± 0.03	1.04 ± 0.033	1.07 ± 0.034	1.03 ± 0.038	1.04 ± 0.056	1.03 ± 0.028	1.02 ± 0.047	1.1 ± 0.043	0.949 ± 0.068	1.01 ± 0.081	0.992 ± 0.018	0.996 ± 0.063	0.967 ± 0.044	1 ± 0.046	0.48 ± 0.036	0.0988 ± 0.0065
CAL72 BONE	1.07 ± 0.057	1.06 ± 0.084	1.05 ± 0.073	1.05 ± 0.12	1.05 ± 0.055	1.08 ± 0.1	1.04 ± 0.082	1.04 ± 0.12	1.03 ± 0.092	0.999 ± 0.14	1.01 ± 0.11	1.02 ± 0.13	1.05 ± 0.099	1.02 ± 0.18	0.848 ± 0.12	0.447 ± 0.2
CAL120 BREAST	0.966 ± 0.049	1.01 ± 0.059	0.975 ± 0.058	0.983 ± 0.069	1.02 ± 0.07	0.998 ± 0.043	1.04 ± 0.017	1.04 ± 0.056	0.915 ± 0.051	0.912 ± 0.083	0.944 ± 0.076	0.927 ± 0.029	0.931 ± 0.071	0.933 ± 0.021	0.676 ± 0.025	0.316 ± 0.03
CASKI CERVIX	0.938 ± 0.09	0.926 ± 0.033	0.959 ± 0.045	0.963 ± 0.049	1.03 ± 0.036	1.05 ± 0.099	0.993 ± 0.023	1.06 ± 0.041	0.889 ± 0.044	0.923 ± 0.029	0.899 ± 0.078	0.939 ± 0.063	1.02 ± 0.057	1.05 ± 0.052	0.683 ± 0.1	0.0593 ± 0.004
CHLA90 AUTONOMIC GANGLIA	1.01 ± 0.075	0.996 ± 0.049	0.984 ± 0.024	1.03 ± 0.033	0.962 ± 0.056	1.07 ± 0.043	1.07 ± 0.064	1.08 ± 0.053	0.969 ± 0.059	0.89 ± 0.077	0.879 ± 0.074	0.888 ± 0.022	0.997 ± 0.047	0.998 ± 0.029	0.896 ± 0.08	0.663 ± 0.005
CME SYNOVIAL	1.23 ± 0.043	1.29 ± 0.045	1.4 ± 0.15	1.44 ± 0.15	1.37 ± 0.059	1.38 ± 0.14	1.33 ± 0.18	1.21 ± 0.039	1.17 ± 0.12	1.01 ± 0.079	1.19 ± 0.026	1.08 ± 0.014	1.26 ± 0.11	1.16 ± 0.15	0.711 ± 0.14	0.38 ± 0.027
COLO320DM LARGE INTESTINE	1.06 ± 0.14	1 ± 0.062	1.07 ± 0.081	1.07 ± 0.04	1.03 ± 0.063	1.15 ± 0.086	1.08 ± 0.077	1.12 ± 0.031	1.14 ± 0.11	1.11 ± 0.12	1.08 ± 0.15	1.08 ± 0.078	1.09 ± 0.15	0.965 ± 0.056	0.3693 ± 0.0033	0.266 ± 0.0093
